# Source: US20180153993A1, “COMPOSITIONS AND METHODS FOR TREATMENT AND PREVENTION OF CARDIOVASCULAR DISEASES” (The Chinese University of Hong Kong, priority 2016, published 2018)
# Legend:
# YAP = YAP phosphorylation (Ser127, pYAP) by immunoblotting in HUVECs; format: cell-based, human
# Procedure: Cells or tissues were homogenized in cold RIPA lysis buffer supplemented with complete protease inhibitors cocktail and phosSTOP phosphatase inhibitor (Roche). The protein concentration was determined using Bradford Assay (Bio-Rad). Ten micrograms of protein were resolved by SDS-polyacrylamide gel electrophoresis and transferred to the PVDF membrane (Bio-Rad). Target protein was detected using specific primary antibody. Bound antibodies were detected by horseradish-peroxidase-conjugated secondary antibody and visualized by enhanced chemiluminescence (Cell Signaling Technology). Experiments were repeated three times and the target protein level was quantified by imageJ and normalized to internal control (or pYAP was normalized by total YAP) (FIGS. 10 and 11).
# (§1) HUVECs and human aortic ECs were purchased from Lonza (EGM, Clonetics, Lonza, Walkersville, Md., USA). Lonza guarantees that the cells express CD31/105, von Williebrand Factor VIII, and are positive for acetyated low density lipoprotein uptake. Mycoplasma contamination was not tested during the experiments. HUVECs maintained in EGM supplemented with EGS and FBS at 37° C. in an incubator with 95% humidified air and 5% CO2 and passed every 3 days. Cells within seven passages were used in in vitro study.
# YAP/TAZ [1] = assay: YAP/TAZ nuclear exportation in HUVECs; format: cell-based, human
# ApoE−/− mice = assay: Oral administration of MnCl2 in ApoE-/- mice on Western diet, Oil Red O staining of atherosclerotic plaques; format: in vivo, mouse; settings: Western diet 12 weeks, MnCl2 oral in drinking water 5 mg/kg body weight
# Procedure: ApoE^−/− mice (male, 12 weeks old) were fed a Western diet, and MnCl2 was administered through voluntary water consumption. Water consumption rate was predetermined by monitoring the volume of water remained. MnCl2 was supplemented to drinking water to achieve 5 mg/kg body weight. Mice body weight and water consumption were adjusted weekly to adapt to the change of body weight and water consumption. After feeding on the Western diet for 3 months, the mice were killed and the atherosclerotic plaque formation was determined by Oil Red O staining.
# The ApoE^−/− mice were killed by CO2 asphyxiation. Mouse aortas were dissected in cold PBS and cut open to expose the atherosclerotic plaques. After fixation in 4% formaldehyde for 16 h at 4° C., the tissues were first rinsed in water for 10 min and then in 60% isopropanol. The aortas were stained with Oil Red O for 15 min with gentle shaking, and rinsed again in 60% isopropanol and then in water for three rinses. The samples were fixed on the cover slides with the endothelial surface facing upwards. The images were recorded using an HP Scanjet G4050. The plaque areas were determined using National Institutes of Health ImageJ software and calculated by expressing the plaque area relative to the total vascular area.
# YAP/TAZ [2] = assay: YAP/TAZ reporter (8xGTIIC-luc) gene activity in HUVECs; format: cell-based, human
# RhoA = assay: GST-RBD pull-down for active RhoA (GTP-RhoA) detection; format: cell-based, human; settings: MnCl2 treatment
# Procedure: GST-RBD recombinant protein was purified from BL21 (DE3) Escherichia coli and affinity conjugated to glutathione sepharose beads (Pharmacia). For GST affinity pull-down, 10^7 cells were lysed in 1 ml Weak Lysis Buffer (Beyotime) supplemented with protease inhibitors (Roche). Cell lysates were centrifuged at 15,000 g at 4° C. for 20 min to remove cell debris. Cell lysates were incubated in sepharose beads conjugated with 1 μg GST-RBD and incubate at 4° C. for 2 h with constant agitation, and precipitated by centrifugation at 1,000 r.p.m. for 10 min. After three washes, beads were collected by centrifugation and boiled in 2× SDS loading buffer for 5 min. The active RhoA was determined by western blotting.
# YAP/TAZ [3] = assay: YAP/TAZ reporter gene activity assay of anti-atherosclerotic agents (YAP/TAZ inhibition test); format: cell-based, human; settings: working concentrations of Table 1: apelin 100 nM, ApoA1 10 μg/mL, niacin 3 to 5 mM, statins 1-10 μM
# Excerpt: Adenovirus-mediated reporter system and immortalized human aortic endothelial cells (HAECs) are used for drug screening. […] Endothelial cells express specific receptors that determine their unique response to different drug treatment. Therefore, it is necessary to use endothelial cells to study the YAP/TAZ inhibitory effect of lead drugs. Since primary endothelial cells from different donors contain distinct genetic background, which might cause significant variation between different batches of experiments, the immortalized human aortic endothelial cells are used. However, endothelial cells are difficult to be transformed, which could delay research progress and increase cost. To overcome this problem, the inventors have generated adenoviral expressing YAP/TAZ luciferase reporter and renilla internal control. The entire screening process can be completed in two days.
# YAP/TAZ [4] = assay: YAP/TAZ target gene expression (CTGF, CYR61), quantitative real-time PCR in HUVECs; format: cell-based, human; settings: CTGF and CYR61
# Procedure: RNA was extracted by using TRIzol Reagent (Thermo) according to the manufacturer's protocol. cDNA was synthesized using a High-Capacity cDNA Reverse Transcription Kit (Thermo). Quantitative PCR was performed using SYBR Select (Thermo) following the manufacturer's protocol. GAPDH was used as the internal control. Primers used for quantitative real-time PCR were included in Table 2.
# as §1
compound,measurement,setting,value
[Cl][Mn][Cl] [MnCl2],YAP phosphorylation (pYAP),YAP; MnCl2 0.5 mM,increased pYAP
same,YAP/TAZ nuclear exportation,YAP/TAZ [1],induced YAP/TAZ nuclear exportation
same,atherosclerotic plaque formation,ApoE−/− mice,reduced plaque formation
same,YAP/TAZ reporter gene activity,YAP/TAZ [2],reduced YAP/TAZ reporter gene activity
same,GTP-RhoA (active RhoA),RhoA,GTP-RhoA suppression
"O=C(O)c1cccnc1 [niacin, Nicotinic acid]",YAP/TAZ activity (reporter gene),YAP/TAZ [3],suppressed YAP/TAZ activity
Apelin,YAP/TAZ activity (reporter gene),YAP/TAZ [3],suppressed YAP/TAZ activity
ApoA1,YAP/TAZ activity (reporter gene),YAP/TAZ [3],suppressed YAP/TAZ activity
GRGDSP,YAP phosphorylation (pYAP),YAP; GRGDSP 100 μg ml−1,increased pYAP
same,YAP/TAZ target gene expression,YAP/TAZ [4],suppressed YAP/TAZ target gene expression
